Reference: US12291519B2, “2-hydroxycycloalkane-1-carbamoyl” (Idorsia Pharmaceuticals Ltd, priority 2019, dated 2025)

Experiments:
[1] = biological target: human Gal-3 (hGal-3) (Homo sapiens (Human), UniProt P17931); assay: Competitive binding assay: biotinylated hGal-3 binding to microplate-adsorbed asialofetuin (ASF); settings: Activity on hGal-3; binding of biotinylated hGal-3 to ASF-coated plates; mean values
How it was run: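 Serially diluted compounds competed with biotinylated human Gal-3 for binding to plate-adsorbed asialofetuin over 3 h at 4 °C. Bound Gal-3 was detected with streptavidin-peroxidase (80 ng/mL, 1 h, 4 °C) and ABTS substrate. IC50 values are means of several measurements.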

[2] = biological target: human Gal-1 (hGal-1); assay: Competitive binding assay: biotinylated hGal-1 binding to microplate-adsorbed asialofetuin (ASF); settings: Activity on hGal-1; binding of biotinylated hGal-1 to ASF-coated plates; mean values
How it was run: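 Inhibition measured as loss of hGal-1 (biotinylated, 300–1000 ng/mL, wild type or Cys→Ser mutant) binding to adsorbed asialofetuin over 3 h at 4 °C. Bound lectin detected with streptavidin-HRP and ABTS (410 nm, 30–45 min); IC50 values averaged across repeat measurements.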

Chain of human Gal-3 (hGal-3) (P17931 whole entry): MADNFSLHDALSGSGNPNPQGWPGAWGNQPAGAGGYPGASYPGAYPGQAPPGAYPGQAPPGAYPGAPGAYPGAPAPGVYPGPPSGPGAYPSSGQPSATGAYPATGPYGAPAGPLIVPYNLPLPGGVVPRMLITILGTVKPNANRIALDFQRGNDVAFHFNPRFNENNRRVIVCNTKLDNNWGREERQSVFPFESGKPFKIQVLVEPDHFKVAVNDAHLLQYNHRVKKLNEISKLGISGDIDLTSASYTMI
Chain of human Gal-1 (hGal-1) (P09382 2-135 limits assumed): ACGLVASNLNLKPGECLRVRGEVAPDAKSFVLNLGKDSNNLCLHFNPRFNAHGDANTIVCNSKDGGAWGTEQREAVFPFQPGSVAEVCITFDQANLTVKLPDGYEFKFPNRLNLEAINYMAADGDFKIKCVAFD

Compound | IC50 [1] [nM] | IC50 [2] [nM]
O=C([C@@H]1O[C@H](CO)[C@H](O)[C@H](n2cc(-c3cc(F)c(F)c(F)c3)nn2)[C@H]1O)N(Cc1ccc(Cl)s1)[C@H]1CCCC[C@@H]1O [Example 22, (2R,3R,4S,5R,6R)-N-((5-chlorothiophen-2-yl)methyl)-3,5-dihydroxy-N-((1S,2S)-2-hydroxycyclohexyl)-6-(hydroxymethyl)-4-(4-(3,4,5-trifluorophenyl)-1H-1,2,3-triazol-1-yl)tetrahydro-2H-pyran-2-carboxamide] | 167 | 86600
CO[C@@H]1[C@@H](n2cc(-c3cc(F)c(F)c(F)c3)nn2)[C@@H](O)[C@@H](CO)O[C@H]1C(=O)N(Cc1sncc1Cl)[C@H]1CCCC[C@@H]1O [Example 31, (2R,3R,4S,5R,6R)-N-((4-chloroisothiazol-5-yl)methyl)-5-hydroxy-N-((1S,2S)-2-hydroxycyclohexyl)-6-(hydroxymethyl)-3-methoxy-4-(4-(3,4,5-trifluorophenyl)-1H-1,2,3-triazol-1-yl)tetrahydro-2H-pyran-2-carboxamide] | 311 | 1480
CO[C@@H]1[C@@H](n2cc(-c3cc(F)c(F)c(F)c3)nn2)[C@@H](O)[C@@H](CO)O[C@H]1C(=O)N(Cc1ccnn1C(C)C)[C@H]1CCCC[C@@H]1O [Example 45, (2R,3R,4S,5R,6R)-5-hydroxy-N-((1S,2S)-2-hydroxycyclohexyl)-6-(hydroxymethyl)-N-((1-isopropyl-1H-pyrazol-5-yl)methyl)-3-methoxy-4-(4-(3,4,5-trifluorophenyl)-1H-1,2,3-triazol-1-yl)tetrahydro-2H-pyran-2-carboxamide] | 421 | 1430
CO[C@@H]1[C@@H](n2cc(-c3cc(F)c(F)c(F)c3)nn2)[C@@H](O)[C@@H](CO)O[C@H]1C(=O)N(c1ccc(Cl)cc1)[C@H]1CCCC[C@@H]1O [Example 111, (2R,3R,4S,5R,6R)-N-(4-chlorophenyl)-5-hydroxy-N-((1S,2S)-2-hydroxycyclohexyl)-6-(hydroxymethyl)-3-methoxy-4-(4-(3,4,5-trifluorophenyl)-1H-1,2,3-triazol-1-yl)tetrahydro-2H-pyran-2-carboxamide] | 158 | 4220
CO[C@@H]1[C@@H](n2cc(-c3cc(F)c(F)c(F)c3)nn2)[C@@H](O)[C@@H](CO)O[C@H]1C(=O)N(Cc1sccc1Cl)[C@H]1CCCC[C@@H]1O [Example 35, (2R,3R,4S,5R,6R)-N-((3-chlorothiophen-2-yl)methyl)-5-hydroxy-N-((1S,2S)-2-hydroxycyclohexyl)-6-(hydroxymethyl)-3-methoxy-4-(4-(3,4,5-trifluorophenyl)-1H-1,2,3-triazol-1-yl)tetrahydro-2H-pyran-2-carboxamide] | 210 | 1630
C#Cc1cccc(CN(C(=O)[C@@H]2O[C@H](CO)[C@H](O)[C@H](n3cc(-c4cc(F)c(F)c(F)c4)nn3)[C@H]2O)[C@H]2CCCC[C@@H]2O)c1 [Example 3, (2R,3R,4S,5R,6R)-N-(3-ethynylbenzyl)-3,5-dihydroxy-N-((1S,2S)-2-hydroxycyclohexyl)-6-(hydroxymethyl)-4-(4-(3,4,5-trifluorophenyl)-1H-1,2,3-triazol-1-yl)tetrahydro-2H-pyran-2-carboxamide] | 471 | > 100000
O=C([C@@H]1O[C@H](CO)[C@H](O)[C@H](n2cc(-c3cc(F)c(F)c(F)c3)nn2)[C@H]1O)N(Cc1cnc(N2CCOCC2)s1)[C@H]1CCCC[C@@H]1O [Example 21] | 112 | 10700
CO[C@@H]1[C@@H](n2cc(-c3ccc(Cl)c(OC(F)(F)F)c3)nn2)[C@@H](O)[C@@H](CO)O[C@H]1C(=O)N(c1cc(Cl)cc(C#N)c1)[C@H]1CCCC[C@@H]1O [Example 185, (2R,3R,4S,5R,6R)-4-(4-(4-chloro-3-(trifluoromethoxy)phenyl)-1H-1,2,3-triazol-1-yl)-N-(3-chloro-5-cyanophenyl)-5-hydroxy-N-((1S,2S)-2-hydroxycyclohexyl)-6-(hydroxymethyl)-3-methoxytetrahydro-2H-pyran-2-carboxamide] | 232 | 1370
CO[C@@H]1[C@@H](n2cc(-c3cc(F)c(F)c(F)c3)nn2)[C@@H](O)[C@@H](CO)O[C@H]1C(=O)N(Cc1nc2ccccc2cc1Cl)[C@H]1CCCC[C@@H]1O [Example 65, (2R,3R,4S,5R,6R)-N-((3-chloroquinolin-2-yl)methyl)-5-hydroxy-N-((1S,2S)-2-hydroxycyclohexyl)-6-(hydroxymethyl)-3-methoxy-4-(4-(3,4,5-trifluorophenyl)-1H-1,2,3-triazol-1-yl)tetrahydro-2H-pyran-2-carboxamide] | 196 | 6770

Compounds with a lower IC50 [1], results first:

IC50 [1] [nM] | IC50 [2] [nM] | Compound
20 | 242 | CO[C@@H]1[C@@H](n2cc(-c3ccc(Cl)cc3)nn2)[C@@H](O)[C@@H](CO)O[C@H]1C(=O)N(c1cc(Cl)cc(C#N)c1)[C@H]1CCCC[C@@H]1O [Example 201, (2R,3R,4S,5R,6R)-N-(3-chloro-5-cyanophenyl)-4-(4-(4-chlorophenyl)-1H-1,2,3-triazol-1-yl)-5-hydroxy-N-((1S,2S)-2-hydroxycyclohexyl)-6-(hydroxymethyl)-3-methoxytetrahydro-2H-pyran-2-carboxamide]
34 | 792 | CO[C@@H]1[C@@H](n2cc(-c3ccc(Br)c(F)c3)nn2)[C@@H](O)[C@@H](CO)O[C@H]1C(=O)N(c1cc(Cl)cc(C#N)c1)[C@H]1CCCC[C@@H]1O [Example 165, (2R,3R,4S,5R,6R)-4-(4-(4-bromo-3-fluorophenyl)-1H-1,2,3-triazol-1-yl)-N-(3-chloro-5-cyanophenyl)-5-hydroxy-N-((1S,2S)-2-hydroxycyclohexyl)-6-(hydroxymethyl)-3-methoxytetrahydro-2H-pyran-2-carboxamide]
13 | 157 | CO[C@@H]1[C@@H](n2cc(-c3cc(F)c(F)c(F)c3)nn2)[C@@H](O)[C@@H](CO)O[C@H]1C(=O)N(c1cc(Cl)cc(C#N)c1)[C@H]1CCCC[C@@H]1O [Example 88, (2R,3R,4S,5R,6R)-N-(3-chloro-5-cyanophenyl)-5-hydroxy-N-((1S,2S)-2-hydroxycyclohexyl)-6-(hydroxymethyl)-3-methoxy-4-(4-(3,4,5-trifluorophenyl)-1H-1,2,3-triazol-1-yl)tetrahydro-2H-pyran-2-carboxamide]
25 | 323 | CO[C@@H]1[C@@H](n2cc(-c3cc(F)cc(Cl)c3)nn2)[C@@H](O)[C@@H](CO)O[C@H]1C(=O)N(c1cc(F)cc(Br)c1)[C@H]1CCCC[C@@H]1O [Example 136, (2R,3R,4S,5R,6R)-N-(3-bromo-5-fluorophenyl)-4-(4-(3-chloro-5-fluorophenyl)-1H-1,2,3-triazol-1-yl)-5-hydroxy-N-((1S,2S)-2-hydroxycyclohexyl)-6-(hydroxymethyl)-3-methoxytetrahydro-2H-pyran-2-carboxamide]
64 | 1240 | CO[C@@H]1[C@@H](n2cc(-c3cc(F)c(Cl)c(Cl)c3)nn2)[C@@H](O)[C@@H](CO)O[C@H]1C(=O)N(c1ccc(F)c(F)c1)[C@H]1CCCC[C@@H]1O [Example 167, (2R,3R,4S,5R,6R)-4-(4-(3,4-dichloro-5-fluorophenyl)-1H-1,2,3-triazol-1-yl)-N-(3,4-difluorophenyl)-5-hydroxy-N-((1S,2S)-2-hydroxycyclohexyl)-6-(hydroxymethyl)-3-methoxytetrahydro-2H-pyran-2-carboxamide]
17 | 1160 | COc1cc(C#N)cc(N(C(=O)[C@@H]2O[C@H](CO)[C@H](O)[C@H](n3cc(-c4cc(F)cc(F)c4)nn3)[C@H]2OC)[C@H]2CCCC[C@@H]2O)c1 [Example 82, (2R,3R,4S,5R,6R)-N-(3-cyano-5-methoxyphenyl)-4-(4-(3,5-difluorophenyl)-1H-1,2,3-triazol-1-yl)-5-hydroxy-N-((1S,2S)-2-hydroxycyclohexyl)-6-(hydroxymethyl)-3-methoxytetrahydro-2H-pyran-2-carboxamide]
9 | 509 | Cc1ccc(-c2cn([C@H]3[C@@H](O)[C@@H](CO)O[C@@H](C(=O)N(c4cc(Cl)cc(C#N)c4)[C@H]4CCCC[C@@H]4O)[C@@H]3OCC(=O)N3CCOCC3)nn2)c(F)c1F [Example 173, (2R,3R,4S,5R,6R)-N-(3-chloro-5-cyanophenyl)-4-(4-(2,3-difluoro-4-methylphenyl)-1H-1,2,3-triazol-1-yl)-5-hydroxy-N-((1S,2S)-2-hydroxycyclohexyl)-6-(hydroxymethyl)-3-(2-morpholino-2-oxoethoxy)tetrahydro-2H-pyran-2-carboxamide]
15 | 682 | CO[C@@H]1[C@@H](n2cc(-c3ccc(Br)c(F)c3F)nn2)[C@@H](O)[C@@H](CO)O[C@H]1C(=O)N(c1cc(F)cc(C#N)c1)[C@H]1CCCC[C@@H]1O [Example 176, (2R,3R,4S,5R,6R)-4-(4-(4-bromo-2,3-difluorophenyl)-1H-1,2,3-triazol-1-yl)-N-(3-cyano-5-fluorophenyl)-5-hydroxy-N-((1S,2S)-2-hydroxycyclohexyl)-6-(hydroxymethyl)-3-methoxytetrahydro-2H-pyran-2-carboxamide]
49 | 1790 | CO[C@@H]1[C@@H](n2cc(-c3cc(F)c(F)c(F)c3)nn2)[C@@H](O)[C@@H](CO)O[C@H]1C(=O)N(c1cccc(Cl)c1)[C@H]1CCCCC[C@@H]1O [Example 207, (2R,3R,4S,5R,6R)-N-(3-chlorophenyl)-5-hydroxy-N-((1S,2S)-2-hydroxycycloheptyl)-6-(hydroxymethyl)-3-methoxy-4-(4-(3,4,5-trifluorophenyl)-1H-1,2,3-triazol-1-yl)tetrahydro-2H-pyran-2-carboxamide]
24 | 678 | CO[C@@H]1[C@@H](n2cc(-c3cc(F)c(N4CCOCC4)c(F)c3)nn2)[C@@H](O)[C@@H](CO)O[C@H]1C(=O)N(c1cc(Cl)cc(Cl)c1)[C@H]1CCCC[C@@H]1O [Example 203]
